Measured values reported in US9890117B2, “Benzamide compounds and related methods of use” (Northwestern University, priority 2012, dated 2018).
Where a name gives a salt, the structure may show the parent alone.

What was measured:
[1] = molecular target: T1, SIRT2 (Homo sapiens, UniProt Q8IXJ6); assay: Fluor-de-Lys biochemical sirtuin deacetylation assay, SIRT2
T1 construct: recombinant active enzymes SIRT1, SIRT2, and the catalytically active fragment of SIRT3
T1 sequence (Q8IXJ6 1-389): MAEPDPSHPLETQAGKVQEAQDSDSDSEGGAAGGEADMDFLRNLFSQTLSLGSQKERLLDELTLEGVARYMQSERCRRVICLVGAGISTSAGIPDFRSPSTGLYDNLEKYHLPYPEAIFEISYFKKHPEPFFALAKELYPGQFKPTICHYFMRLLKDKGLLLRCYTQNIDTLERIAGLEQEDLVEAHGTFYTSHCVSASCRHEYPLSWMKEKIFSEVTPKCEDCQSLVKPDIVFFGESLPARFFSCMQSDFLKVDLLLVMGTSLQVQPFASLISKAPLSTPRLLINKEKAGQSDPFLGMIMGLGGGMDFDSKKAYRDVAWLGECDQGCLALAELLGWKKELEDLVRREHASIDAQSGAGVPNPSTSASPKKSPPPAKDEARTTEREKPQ

In the case of `CC(=O)c1ccc(N(C2CC2)S(=O)(=O)c2cccc(C(=O)Nc3ccc(C#N)cc3)c2)cc1` [Compound 203Aw, 3-(N-(4-acetylphenyl)-N-cyclopropylsulfamoyl)-N-(4-cyanophenyl)benzamide], the inhibition at 10 µM [1] was 61% and the melting point was 185 to 186 °C.

With `Cc1cc(Cl)ccc1N(C)C(=O)c1cccc(S(=O)(=O)N(C)c2ccc(Br)cc2)c1` [Compound 203l, 3-(N-(4-bromophenyl)-N-methylsulfamoyl)-N-(4-chloro-2-methylphenyl)-N-methylbenzamide] the inhibition at 10 µM [1] was 25% and the melting point was 124 to 125 °C.

For `CN(c1ccc([S+](C)[O-])cc1)S(=O)(=O)c1cc(C(=O)Nc2ccc(C#N)cc2)ccn1` (centres unmarked) [Compound 203Ar, N-(4-cyanophenyl)-2-(N-methyl-N-(4-(methylsulfinyl)phenyl)sulfamoyl)-isonicotinamide], the inhibition at 10 µM [1] was 20% and the melting point was 243 to 245 °C (dec.).

`CN(C(=O)c1cccc(S(=O)(=O)N(C)c2ccc(S(C)(=O)=O)cc2)c1)c1ccc(Cl)cc1F` [Compound 203Ah, N-(4-chloro-2-fluorophenyl)-N-methyl-3-(N-methyl-N-(4-(methylsulfonyl)phenyl)-sulfamoyl)benzamide] showed an inhibition at 10 µM [1] of 16% and a melting point of 159 to 160 °C.

For `Cc1cc(Br)ccc1NC(=O)c1cccc(S(=O)(=O)N2CCCCCC2)c1` [Compound 203b, 3-(azepan-1-ylsulfonyl)-N-(4-bromo-2-methylphenyl)benzamide], the inhibition at 10 µM [1] was 0% and the melting point was 177 to 179 °C.

In the case of `N#Cc1ccc(NC(=O)c2cccc(OCc3ccc(F)cc3)c2)cc1` [Compound 216g, N-(4-cyanophenyl)-3-((4-fluorobenzyl)oxy)benzamide], the inhibition at 10 µM [1] was 64% and the melting point was 149 to 150 °C.

With `COc1ccc(CSc2cccc(C(=O)Nc3ccc(C#N)cn3)c2)cc1` [Compound 211d, N-(5-cyanopyridin-2-yl)-3-((4-methoxybenzyl)thio)benzamide] the inhibition at 10 µM [1] was 46% and the melting point was 163 to 164 °C.

For `CC(=O)c1ccc(COc2cncc(C(=O)Nc3ccc(C#N)cc3)c2)cc1` [Compound 216u, 5-((4-acetylbenzyl)oxy)-N-(4-cyanophenyl)nicotinamide], the inhibition at 10 µM [1] was 0% and the melting point was 228 to 229 °C (dec.).

Molecule `N#Cc1ccc(NC(=O)c2cccc(NCc3ccc(F)cc3)c2)cc1` [Compound 221a, N-(4-cyanophenyl)-3-((4-fluorobenzyl)amino)benzamide] has an inhibition at 10 µM [1] of 41% and a melting point of 173 to 174 °C.

With `CN(c1ccc(S(C)(=O)=O)cc1)S(=O)(=O)c1cccc(NC(=O)c2ccc(Br)cc2)c1` [Compound 207b, 4-bromo-N-(3-(N-methyl-N-(4-(methylsulfonyl)phenyl)sulfamoyl)phenyl)benzamide] the inhibition at 10 µM [1] was 57% and the melting point was 216 to 218 °C.

Work on `COc1ccc(CSc2cccc(C(=O)Nc3ccc(C#N)cc3)c2)cc1` [Compound 211c, N-(4-cyanophenyl)-3-((4-methoxybenzyl)thio)benzamide] yielded an inhibition at 10 µM [1] of 69% and a melting point of 167 to 169 °C.

Work on `CCN(c1ccc(O)cc1)S(=O)(=O)c1cccc(C(=O)Nc2ccc(C#N)cc2)c1` [Compound 203Ay, N-(4-cyanophenyl)-3-(N-ethyl-N-(4-hydroxyphenyl)sulfamoyl)benzamide] yielded an inhibition at 10 µM [1] of 40% and a melting point of 102 to 104 °C.

`Cc1cc(Cl)ccc1NC(=O)c1cccc(S(=O)(=O)N(C)c2ccc(Br)cc2)c1` [Compound 203n, 3-(N-(4-bromophenyl)-N-methylsulfamoyl)-N-(4-chloro-2-methylphenyl)benzamide] gave an inhibition at 10 µM [1] of 18% and a melting point of 163 to 164 °C.

Work on `CCCN(CCC)S(=O)(=O)c1cccc(C(=O)Nc2ccc(Br)cc2C)c1` [Compound 203c, N-(4-bromo-2-methylphenyl)-3-(N,N-dipropylsulfamoyl)benzamide] yielded an inhibition at 10 µM [1] of 0% and a melting point of 135 to 136 °C.

`N#Cc1ccc(NC(=O)c2cccc(OCc3ccc(F)c(F)c3)c2)cc1` [Compound 216z, N-(4-cyanophenyl)-3-((3,4-difluorobenzyl)oxy)benzamide] gave an inhibition at 10 µM [1] of 64% and a melting point of 173 to 174 °C.

For `CN(c1ccc(Br)cc1)S(=O)(=O)c1cccc(C(=O)Nc2ccc(Cl)cc2F)c1` [Compound 203q, 3-(N-(4-bromophenyl)-N-methylsulfamoyl)-N-(4-chloro-2-fluorophenyl)benzamide], the inhibition at 10 µM [1] was 29% and the melting point was 117 to 118 °C.

`COc1ccc(COc2cccc(C(=O)Nc3ccc(C#N)cn3)c2)cc1` [Compound 216d, N-(5-cyanopyridin-2-yl)-3-((4-methoxybenzyl)oxy)benzamide] gave an inhibition at 10 µM [1] of 8% and a melting point of 132 to 134 °C.

`C[S+]([O-])c1ccc(COc2cccc(C(=O)Nc3ccc(C#N)cc3)c2)cc1` (centres unmarked) [Compound 216e] showed an inhibition at 10 µM [1] of 32% and a melting point of 174 to 175 °C.

`CSc1ccc(COc2cccc(C(=O)Nc3ccc(C#N)cc3)c2)cc1` [Compound 216a, N-(4-cyanophenyl)-3-((4-(methylthio)benzyl)oxy)benzamide] showed an inhibition at 10 µM [1] of 60% and a melting point of 147 to 148 °C.

`CC(=O)Nc1cccc(NC(=O)c2cccc(S(=O)(=O)N3CCCCCC3)c2)c1` [Compound 203k, N-(3-acetamidophenyl)-3-(azepan-1-ylsulfonyl)benzamide] showed an inhibition at 10 µM [1] of 59% and a melting point of 117 to 120 °C.

`CN(C(=O)c1cccc(S(=O)(=O)N(C)c2ccc(Br)cc2)c1)c1ccc(Br)cc1F` [Compound 203s, N-(4-bromo-2-fluorophenyl)-3-(N-(4-bromophenyl)-N-methylsulfamoyl)-N-methylbenzamide] gave a melting point of 136 to 137 °C.

In the case of `CN(c1ccc(Cl)cc1)S(=O)(=O)c1cccc(C(=O)Nc2ccc(C#N)cc2F)c1` [Compound 203Ab, 3-(N-(4-chlorophenyl)-N-methylsulfamoyl)-N-(4-cyano-2-fluorophenyl)benzamide], the melting point was 158 to 159 °C.

Molecule `CN(C(=O)c1cccc(S(=O)(=O)N(C)c2ccc(Br)cc2)c1)c1ccc(Cl)cc1F` [Compound 203p, 3-(N-(4-bromophenyl)-N-methylsulfamoyl)-N-(4-chloro-2-fluorophenyl)-N-methylbenzamide] has a melting point of 127 to 128 °C.

`CN(c1ccc(Cl)cc1)S(=O)(=O)c1cc(C(=O)Nc2ccc(C#N)cc2)ccn1` [Compound 203Am, 2-(N-(4-chlorophenyl)-N-methylsulfamoyl)-N-(4-cyanophenyl)isonicotinamide] gave a melting point of 195 to 197 °C.

Work on `CN(C(=O)c1ccnc(S(=O)(=O)N(C)c2ccc(Cl)cc2)c1)c1ccc(S(C)(=O)=O)cc1` [Compound 203Ao, 2-(N-(4-chlorophenyl)-N-methylsulfamoyl)-N-methyl-N-(4-(methylsulfonyl)phenyl)-isonicotinamide] yielded an inhibition at 10 µM [1] of 0%.

With `CC(=O)c1ccc(NC(=O)c2cccc(S(=O)(=O)N(C)c3ccc(C(C)=O)cc3)c2)cc1` [Compound 109, N-(4-Acetylphenyl)-3-(N-(4-acetylphenyl)-N-methylsulfamoyl)benzamide] the “SIRT2 inhibition potency compared with AK-1” value ([1]; dose-response, five doses, side-by-side with AK-1) was “equal or just slightly better potency”.

`N#Cc1cccc(NC(=O)c2cncc(CN(Cc3ccc(F)c(F)c3)C3CC3)c2)c1` [Compound 225w, N-(3-cyanophenyl)-5-((cyclopropyl(3,4-difluorobenzyl)amino)methyl)nicotinamide hydrochloride] gave an inhibition at 10 µM [1] of 20%.

In the case of `N#Cc1ccc(NC(=O)c2cccc(CN(Cc3ccc(C#N)nc3)C3CC3)c2)cc1` [Compound 225g, N-(4-cyanophenyl)-3-((((6-cyanopyridin-3-yl)methyl)(cyclopropyl)amino)-methyl)benzamide hydrochloride], the inhibition at 10 µM [1] was 44%.

Work on `CN(C)c1cccc(NC(=O)c2cccc(S(=O)(=O)N3CCCCCC3)c2)c1` [Compound 203j, 3-(azepan-1-ylsulfonyl)-N-(3-(dimethylamino)phenyl)benzamide] yielded an inhibition at 10 µM [1] of 61%.

For `O=C(Cc1ccc(Cl)cc1)c1cccc(S(=O)(=O)N2CCCCCC2)c1` [Compound 231a, 1-(3-(azepan-1-ylsulfonyl)phenyl)-2-(4-chlorophenyl)ethanone], the melting point was 135 to 136 °C.

For `CC(O)c1ccc([C@@H](C)Oc2cccc(C(=O)Nc3ccc(C#N)cc3)c2)cc1` (stereo partly drawn) [Compound 216Am, N-(4-cyanophenyl)-3-((1R)-1-(4-(1-hydroxyethyl)phenyl)ethoxy)benzamide], the inhibition at 10 µM [1] was 21%.

`CN(C(=O)c1cncc(CN(Cc2ccc(C#N)cc2)C2CC2)c1)c1ccc(Cl)cc1` [Compound 225p, N-(4-chlorophenyl)-5-(((4-cyanobenzyl)(cyclopropyl)amino)methyl)-N-methylnicotinamide hydrochloride] showed an inhibition at 10 µM [1] of 0%.

For `O=C(Nc1ccc(Cl)cc1)c1cncc(CN(Cc2ccc(F)c(F)c2)C2CC2)c1` [Compound 225t, N-(4-chlorophenyl)-5-((cyclopropyl(3,4-difluorobenzyl)amino)methyl)nicotinamide hydrochloride], the inhibition at 10 µM [1] was 9%.

In the case of `CC(=O)c1ccc(NC(=O)c2cccc(O[C@H](C)c3ccc(C(C)=O)cc3)c2)cc1` [Compound 216As, (R)—N-(4-acetylphenyl)-3-(1-(4-acetylphenyl)ethoxy)benzamide], the inhibition at 10 µM [1] was 97%.

In the case of `CC(C)(C)N(Cc1ccc(C#N)cc1)Cc1cccc(C(=O)Nc2ccc(C#N)cc2)c1` [Compound 225h, 3-((tert-butyl(4-cyanobenzyl)amino)methyl)-N-(4-cyanophenyl)benzamide hydrochloride], the inhibition at 10 µM [1] was 28%.

For `CSc1ccc(CSc2cccc(C(=O)Nc3ccc(C#N)cc3)c2)cc1` [Compound 183, N-(4-cyanophenyl)-3-((4-(methylthio)benzyl)thio)benzamide], the inhibition at 10 µM ([1]; sulfone, sulfoxide, thioether derivatives of C2-8 scaffold) was 83%.
